According to patent publication US20260200892A1, “CANNABINOID RECEPTOR 2 MODULATORS” (Hoffmann-La Roche Inc., priority 2023, published 2026):

Legend:
[1] = target: T1, human CB2 receptor (hCB2R) (Homo sapiens, UniProt P34972); assay: TR-FRET hCB2R binding assay; settings: TR-FRET, membranes of SNAP-tagged human CB2R HEK293-TR cells, 100 μM GppNHp, nonspecific binding with SR144528; read-out: Kd hCB2R
T1 construct: expressed in transfected cells; membranes

[2] = target: hCB1R (Homo sapiens, UniProt P21554); assay: hCB1R binding (Kd hCB1R, Table 1)
[3] = target: T2, CB2 receptor (hCB2R), CHO cell line stably overexpressing CB2 receptor (Homo sapiens, UniProt P34972); assay: cAMP hCB2R functional assay (HTRF); type: cell-based; settings: CHO cells overexpressing CB2 receptor, forskolin; for Functionality: normalized to Emax of CP55940 (100%); for EC50: means ± SEM of 2-3 independent experiments
T2 construct: expressed in transfected cells; host or cells: CHO cell line stably overexpressing CB2 receptor (G418 selection)
Procedure: cAMP hCB2R Functional Assay
The Homogeneous Time Resolved Fluorescence (HTRF) Assays
The homogeneous time-resolved fluorescence (HTRF) cAMP assay was conducted according to the manufacturer's protocol for the cAMP-Gs Dynamic kit (Cisbio). Briefly, the CHO cell line stably overexpressing CB2 receptor were maintained in Ham's F12 supplemented with 10% FBS, 100 U/ml penicillin and 100 μg/ml streptomycin (Gibco-ThermoFisher) and 400 μg/ml G418 (ThermoFisher). For CB2 compounds test, harvest the cells with Cell Dissociation Buffer and re-suspend the cells in F-12 K at 0.4*10^6 cells/mL, and dispense cells into 384-well low volume plates at 2000 cells/5 μL per well. The cells were stimulated with compounds diluted in Stimulation Buffer (2.5 μL/well) for 15 min at room temperature. And then followed by the addition of 2.5 μL 25 μM forsklin. After 15 mins incubation, reactions were stopped by 5 μL/well cAMP-d2 conjugate working solution followed by 5 μL/well of anti-cAMP cryptate working solution. After incubation for 1 h at room temperature, the plates were read in a PerkinElmer Envision reader for time-resolved fluorescence resonance energy transfer detection at 620 nm and 665 nm.
Quantification and Statistical Analysis
All HTRF ratio data sets of test compounds were normalized to the Emax of CP55940 (100%) and obtained the means±standard error of the mean (SEM) of 2-3 independent experiments performed in technical replicates.

T2 sequence (P34972 whole entry): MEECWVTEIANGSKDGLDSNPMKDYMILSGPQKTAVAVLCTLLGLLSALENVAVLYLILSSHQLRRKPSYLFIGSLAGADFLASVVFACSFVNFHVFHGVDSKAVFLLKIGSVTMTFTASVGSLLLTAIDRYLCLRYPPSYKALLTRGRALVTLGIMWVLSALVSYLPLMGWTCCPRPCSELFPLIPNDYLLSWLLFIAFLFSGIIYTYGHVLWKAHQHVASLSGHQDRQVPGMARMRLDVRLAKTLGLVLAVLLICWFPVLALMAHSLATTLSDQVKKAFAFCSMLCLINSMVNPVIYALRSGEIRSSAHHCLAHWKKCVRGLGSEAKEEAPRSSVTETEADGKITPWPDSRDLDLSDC
T1 sequence (P34972 whole entry): as above
Sequence of hCB1R (P21554 whole entry): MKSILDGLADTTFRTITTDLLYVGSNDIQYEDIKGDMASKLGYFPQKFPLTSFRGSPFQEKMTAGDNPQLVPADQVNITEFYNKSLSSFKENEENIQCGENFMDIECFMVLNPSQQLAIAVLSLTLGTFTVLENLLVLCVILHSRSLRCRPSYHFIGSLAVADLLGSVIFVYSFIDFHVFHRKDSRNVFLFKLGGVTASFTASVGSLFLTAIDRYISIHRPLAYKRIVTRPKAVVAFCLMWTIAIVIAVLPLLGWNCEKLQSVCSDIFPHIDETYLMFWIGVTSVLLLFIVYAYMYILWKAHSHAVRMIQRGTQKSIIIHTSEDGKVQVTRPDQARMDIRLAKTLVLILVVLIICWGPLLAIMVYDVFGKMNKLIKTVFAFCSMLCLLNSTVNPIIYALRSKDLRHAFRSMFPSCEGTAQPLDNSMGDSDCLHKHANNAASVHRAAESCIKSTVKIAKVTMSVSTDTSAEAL

| Compound | Kd [1] [µM] | Kd [2] [µM] | Functionality [3] | EC50 [3] [µM] |
| --- | --- | --- | --- | --- |
| CCCCC[C@@H](CC)C(C)(C)c1cc(OC)c([C@H]2C=C(CO)[C@H]3C[C@@H]2C3(C)C)c(OC)c1 (single isomer, unassigned) [Example 4] | 0.00097 | 2.19 | antagonist |  |
| CCCCC[C@@H](C(F)(F)F)C(C)(C)c1cc(OC)c([C@H]2C=C(CO)[C@H]3C[C@@H]2C3(C)C)c(OC)c1 [Example 1, ((1S,4S,5S)-4-(2,6-dimethoxy-4-((R)-2-methyl-3-(trifluoromethyl)octan-2-yl)phenyl)-6,6-dimethylbicyclo[3.1.1]hept-2-en-2-yl)methanol] | 0.606 | 11.8 | antagonist |  |
| CCCCC[C@H](C(F)(F)F)C(C)(C)c1cc(OC)c([C@H]2C=C(CO)[C@H]3C[C@@H]2C3(C)C)c(OC)c1 [Example 2, ((1S,4S,5S)-4-(2,6-dimethoxy-4-((S)-2-methyl-3-(trifluoromethyl)octan-2-yl)phenyl)-6,6-dimethylbicyclo[3.1.1]hept-2-en-2-yl)methanol] | 0.0099 | 6.53 | agonist | 0.0117 |
| CCCCCC(CC)C(C)(C)c1cc(OC)c([C@H]2C=C(CO)[C@H]3C[C@@H]2C3(C)C)c(OC)c1 (stereo partly drawn) [Example 3, ((1S,4S,5S)-4-(4-(3-ethyl-2-methyloctan-2-yl)-2,6-dimethoxyphenyl)-6,6-dimethylbicyclo[3.1.1]hept-2-en-2-yl)methanol] | 0.00056 | 13 | partial agonist | 0.1 |
| CCCCCC(CCC)C(C)(C)c1cc(OC)c([C@H]2C=C(CO)[C@H]3C[C@@H]2C3(C)C)c(OC)c1 (stereo partly drawn) [Example 5, ((1S,4S,5S)-4-(2,6-dimethoxy-4-(2-methyl-3-propyloctan-2-yl)phenyl)-6,6-dimethylbicyclo[3.1.1]hept-2-en-2-yl)methanol] | 0.074 | 6.74 | inverse agonist | 0.112 |
| CCCCCC(C(C)C)C(C)(C)c1cc(OC)c([C@H]2C=C(CO)[C@H]3C[C@@H]2C3(C)C)c(OC)c1 (stereo partly drawn) [Example 6, ((1S,4S,5S)-4-(4-(3-isopropyl-2-methyloctan-2-yl)-2,6-dimethoxyphenyl)-6,6-dimethylbicyclo[3.1.1]hept-2-en-2-yl)methanol] | 0.0061 | 7.04 | antagonist |  |
| CCCCC[C@H](c1ccccc1)C(C)(C)c1cc(OC)c([C@H]2C=C(CO)[C@H]3C[C@@H]2C3(C)C)c(OC)c1 [Example 7, ((1S,4S,5S)-4-(2,6-dimethoxy-4-((R)-2-methyl-3-phenyloctan-2-yl)phenyl)-6,6-dimethylbicyclo[3.1.1]hept-2-en-2-yl)methanol] | 0.197 | 1.04 | inverse agonist | 0.417 |
| CCCCC[C@@H](c1ccccc1)C(C)(C)c1cc(OC)c([C@H]2C=C(CO)[C@H]3C[C@@H]2C3(C)C)c(OC)c1 [Example 8, ((1S,4S,5S)-4-(2,6-dimethoxy-4-((S)-2-methyl-3-phenyloctan-2-yl)phenyl)-6,6-dimethylbicyclo[3.1.1]hept-2-en-2-yl)methanol] | 0.0045 | 0.716 | inverse agonist | 0.302 |
| CCCCC[C@H](c1ccc(F)cc1)C(C)(C)c1cc(OC)c([C@H]2C=C(CO)[C@H]3C[C@@H]2C3(C)C)c(OC)c1 [Example 9, ((1S,4S,5S)-4-(4-((R)-3-(4-fluorophenyl)-2-methyloctan-2-yl)-2,6-dimethoxyphenyl)-6,6-dimethylbicyclo[3.1.1]hept-2-en-2-yl)methanol] | 1.15 | 1.48 | antagonist |  |
| CCCCC[C@@H](c1ccc(F)cc1)C(C)(C)c1cc(OC)c([C@H]2C=C(CO)[C@H]3C[C@@H]2C3(C)C)c(OC)c1 [Example 10, ((1S,4S,5S)-4-(4-((S)-3-(4-fluorophenyl)-2-methyloctan-2-yl)-2,6-dimethoxyphenyl)-6,6-dimethylbicyclo[3.1.1]hept-2-en-2-yl)methanol] | 0.301 | 1.79 | antagonist |  |
| CCCCC[C@H](c1cccc(F)c1)C(C)(C)c1cc(OC)c([C@H]2C=C(CO)[C@H]3C[C@@H]2C3(C)C)c(OC)c1 [Example 11, ((1S,4S,5S)-4-(4-((R)-3-(3-fluorophenyl)-2-methyloctan-2-yl)-2,6-dimethoxyphenyl)-6,6-dimethylbicyclo[3.1.1]hept-2-en-2-yl)methanol] | 0.355 | 2.69 | inverse agonist | 2.34 |
| CCCCC[C@@H](c1cccc(F)c1)C(C)(C)c1cc(OC)c([C@H]2C=C(CO)[C@H]3C[C@@H]2C3(C)C)c(OC)c1 [Example 12, ((1S,4S,5S)-4-(4-((S)-3-(3-fluorophenyl)-2-methyloctan-2-yl)-2,6-dimethoxyphenyl)-6,6-dimethylbicyclo[3.1.1]hept-2-en-2-yl)methanol] | 0.03 | 1.95 | inverse agonist | 0.209 |
| CCN(CC)c1ccc2cc(/C=C/c3ccc(S(=O)(=O)[O-])c[n+]3CCCCCC(=O)NCC3=C[C@H](c4c(OC)cc(C(C)(C)[C@H](CCCCCN=[N+]=[N-])c5ccccc5)cc4OC)[C@@H]4C[C@H]3C4(C)C)c(=O)oc2c1 [Example 22, 1-(6-((((1S,4S,5S)-4-(4-((R)-8-azido-2-methyl-3-phenyloctan-2-yl)-2,6-dimethoxyphenyl)-6,6-dimethylbicyclo[3.1.1]hept-2-en-2-yl)methyl)amino)-6-oxohexyl)-6-((E)-2-(7-(diethylamino)-2-oxo-2H-chromen-3-yl)vinyl)pyridin-1-ium-3-sulfonate] | 0.0102 | 1.74 | inverse agonist | 0.0708 |
| COc1cc(C(C)(C)[C@H](CCCCCN=[N+]=[N-])c2ccccc2)cc(OC)c1[C@H]1C=C(CNC(=O)CCCCCCNc2ccc([N+](=O)[O-])c3nonc23)[C@H]2C[C@@H]1C2(C)C [Example 24, N-(((1S,4S,5S)-4-(4-((R)-8-azido-2-methyl-3-phenyloctan-2-yl)-2,6-dimethoxyphenyl)-6,6-dimethylbicyclo[3.1.1]hept-2-en-2-yl)methyl)-7-((7-nitrobenzo [c][1,2,5]oxadiazol-4-yl)amino)heptanamide] | 0.0123 | 0.84 | inverse agonist | 1.23 |
| COc1cc(C(C)(C)[C@H](CCCCCN=[N+]=[N-])c2ccccc2)cc(OC)c1[C@H]1C=C(CNC(=O)CCCCCNC(=O)c2ccc3c(c2)C(=O)OC32c3ccc(N)c(S(=O)(=O)O)c3Oc3c2ccc(N)c3S(=O)(=O)O)[C@H]2C[C@@H]1C2(C)C [Example 29, 3′,6′-diamino-5-((6-((((1S,4S,5S)-4-(4-((R)-8-azido-2-methyl-3-phenyloctan-2-yl)-2,6-dimethoxyphenyl)-6,6-dimethylbicyclo[3.1.1]hept-2-en-2-yl)methyl)amino)-6-oxohexyl)carbamoyl)-3-oxo-3H-spiro[isobenzofuran-1,9′-xanthene]-4′,5′-disulfonic acid] | 0.0249 | 3.3 |  |  |
